Experimental findings from article PMC8962522, “Direct interaction of TrkA/CD44v3 is essential for NGF-promoted aggressiveness of breast cancer cells” (Journal of Experimental & Clinical Cancer Research : CR, 2022) are described below.

Entries after “also recorded” stand apart in the source; their conditions may differ.

Assay [1] relates to CD44v3 (CD44v3-His, whole cell extracts of COS-7 cells expressing CD44v3). In words: MST binding of NGF, TrkA or FGF to CD44v3. The conditions noted are these: whole cell extracts of COS-7 expressing CD44v3, NGF alone, TrkA alone or FGF control. On the procedure: MST was conducted using an NT.115 A Pico MST instrument (Nano Temper Technologies GmbH) equipped with red and blue filter sets. The TrkA-His tagged extracellular domain protein (Ala 34-Gly423) (9966-TK-050; R&D Systems, United Kingdom), diluted to 200 nM in PBS-T buffer (supplied by the vendor), was labeled using a Monolith His-Tag Labeling Kit with RED-Tris-NTA (Nano Temper). The RED-Tris-NTA dye was diluted in PBS-T to 100 nM. The mix was incubated at RT in the dark for 30 min. Next, an extract expressing CD44v3-labeled protein (CD44v3-His) and ligand and/or TrkA was mixed at a 1:1 ratio and incubated at RT in the dark for 15 min. For the binding check, peptides and TrkA-His were used. Capillaries were filled individually and loaded into the instrument. The data were acquired using high MST power and 100% LED. The data were analyzed using MO Control Software (Nano Temper).
Fig. 1 The C-terminal region of CD44 variant 3 binds to TrkA. A Schematic representation of the CD44 gene and protein structure. Alternative splicing leads to the expression of CD44 variants, thus the insertion of exon 8 leads to the expression of a CD44 protein containing variant 3 (CD44v3) and the insertion of exon 11 leads to the expression of a CD44 containing variant 6 (CD44v6) (B) TrkA/CD44v3 complex formation in COS-7 cells expressing TrkA and CD44v3 was detected by the proximity ligation assay (PLA), which was performed 0, 5 and 30 min after the initiation of NGF (100 ng/ml) treatment. The images represent signals detected by PLA. Quantification of the red spots was performed by ImageJ software (30 randomly chosen fields per condition of three different experiments). Statistical analyses were performed using one-way ANOVA followed by Bonferroni’s posttest. Error bars represent the standard error of the mean (S.E.M.); *** p < 0.001. ns, nonsignificant. C NGF and/or TrkA binding to CD44v3 was measured by microscale thermophoresis (MST). MST experiments were performed on whole cell extracts of COS-7 cells expressing CD44v3. […]

Assay [2] concerns TrkA/CD44v6 complex in MDA-MB-231 cells. In words: PLA TrkA/CD44v6 complex formation in MDA-MB-231 cells. In kind it is cell-based. The following applies: NGF 100 ng/ml; 30 fields per condition, three experiments. On the procedure:
Cells (10,000 cells per well) were grown on acid-washed eight-well glass slides (Thermo Scientific) in the appropriate medium supplemented with 10% FBS for 24 h. After NGF treatment, paraformaldehyde (PAF)-fixed cells were incubated with 4% bovine serum albumin (BSA) or 5% FBS (for 1 h at 20 °C), followed by overnight incubation with primary antibodies (rabbit anti-TrkA or rabbit anti-IgG + mouse anti-pan-CD44; mouse anti-CD44v3; mouse anti-CD44v6; mouse anti-IgG2a; mouse anti-IgG2b; or mouse anti-IgG1). PLA was performed following the manufacturer’s instructions in the assay kit (Duolink PLA; Sigma–Aldrich). To obtain the correct representation of the PLA signal for each condition, 30 fields per condition were observed using a fluorescence microscope (Eclipse TiU; Nikon, Japan). The PLA signals (red dots) were automatically quantified using ImageJ software (with an in-house-developed plug-in). […]
Fig. 3 CD44v3 mimetic peptide 4 blocks the TrkA-CD44 association in MDA-MB-231 breast cancer cells. TrkA/CD44v3 (A) and TrkA/CD44v6 (B) complex associations were detected by the proximity ligation assay (PLA) in MDA-MB-231 breast cancer cells. […] Quantification of the PLA results was performed by ImageJ software (30 randomly chosen fields per condition of three different experiments). […]

For the substance “NGF: recombinant human β-NGF (Alomone Labs, Israel)”, the “binding to CD44v3 (in words)” value in assay [1] is on record as “No binding; also recorded: NGF did not bind to CD44v3; also recorded: NGF does not bind to CD44v3”. Moreover, the “effect on TrkA/CD44v6 complex formation (PLA) in MDA-MB-231 cells” value in assay [2] is listed as “did not induce TrkA/CD44v6 complex formation”.
